The text below walks through data of US11236087B2, “Highly active pyrazolo-piperidine substituted indole-2-carboxamides active against the hepatitis B virus (HBV)” (AiCuris GmbH & Co. KG, priority 2017, dated 2022).

pEC50: −log10 of the molar value.

The subject of one data set is HBV. The data set is described as follows: Determination of HBV DNA from the supernatants of HepAD38 cells (anti-HBV activity). The following applies: Hepatitis B virus, 144 h; HBV DNA in HepAD38 supernatant, day 6, qPCR; read-out: Cell Activity (EC50). The class given is cell-based, hepatitis B virus. Here is the method: Determination of HBV DNA from the Supernatants of HepAD38 Cells
The anti-HBV activity was analysed in the stable transfected cell line HepAD38, which has been described to secrete high levels of HBV virion particles (Ladner et al., 1997). In brief, HepAD38 cells were cultured at 37° C. at 5% CO2 and 95% humidity in 200 μl maintenance medium, which was Dulbecco's modified Eagle's medium/Nutrient Mixture F-12 (Gibco, Karlsruhe), 10% fetal bovine serum (PAN Biotech Aidenbach) supplemented with 50 μg/ml penicillin/streptomycin (Gibco, Karlsruhe), 2 mM L-glutamine (PAN Biotech, Aidenbach), 400 μg/ml G418 (AppliChem, Darmstadt) and 0.3 μg/ml tetracycline. Cells were subcultured once a week in a 1:5 ratio, but were usually not passaged more than ten times. For the assay 60,000 cells were seeded in maintenance medium without any tetracycline into each well of a 96-well plate and treated with serial half-log dilutions of test compound. To minimize edge effects the outer 36 wells of the plate were not used but were filled with assay medium. On each assay plate six wells for the virus control (untreated HepAD38 cells) and six wells for the cell control (HepAD38 cells treated with 0.3 μg/ml tetracycline) were allocated, respectively. In addition, one plate set with reference inhibitors like BAY 41-4109, entecavir, and lamivudine instead of screening compounds were prepared in each experiment. In general, experiments were performed thrice in triplicates. At day 6 HBV DNA from 100 μl filtrated cell culture supernatant (AcroPrep Advance 96 Filter Plate, […] Supor membran, PALL GmbH, Dreieich) was automatically purified on the MagNa Pure LC instrument using the MagNA Pure 96 DNA and Viral NA Small Volume Kit (Roche Diagnostics, Mannheim) according to the instructions of the manufacturer. EC50 values were calculated from relative copy numbers of HBV DNA In brief, 5 μl of the 100 μl eluate containing HBV DNA were subjected to PCR LC480 Probes Master Kit (Roche) together with 1 μM antisense primer […], 0.5 μM sense primer […], 0.3 μM hybprobes […]-FL and LC640-[…]-PH (TIBMoBiol, Berlin) to a final volume of 12.5 μl. The PCR was performed on the Light Cycler 480 real time system (Roche Diagnostics, Mannheim) using the following protocol: Pre-incubation for 1 min at 95° C., amplification: 40 cycles×(10 sec at 95° C., 50 sec at 60° C., 1 sec at 70° C.), cooling for 10 sec at 40° C. Viral load was quantitated against known standards using HBV plasmid DNA of pCH-9/3091 (Nassal et al., 1990, Cell 63: 1357-1363) and the LightCycler 480 SW 1.5 software (Roche Diagnostics, Mannheim) and EC50 values were calculated using non-linear regression with GraphPad Prism 6 (GraphPad Software Inc., La Jolla, USA).
(In general: In qPCR the cycle at which signal appears reflects the starting amount.)

Data set [1] can be described thus: Cell viability assay (AlamarBlue) in HepAD38 cells. The conditions noted are these: human.

Consider `O=C(c1cc2ccccc2[nH]1)N1CCc2n[nH]c(C(=O)N3CCN(Cc4ccccc4)C4(CC4)C3)c2C1` [Example 257, 2-(3-{4-benzyl-4,7-diazaspiro[2.5]octane-7-carbonyl}-2H,4H,5H,6H,7H-pyrazolo[4,3-c]pyridine-5-carbonyl)-1H-indole], for which, in the data set on HBV, the pEC50 was 4.60 to 6.00. The CC50 at 6 days in data set [1] was > 10 µM.
With `CN(C(=O)c1[nH]nc2c1CN(C(=O)c1cc3ccccc3[nH]1)CC2)C1(C(=O)OC(C)(C)C)CC1` [Example 258, tert-butyl 1-[N-methyl 5-(1H-indole-2-carbonyl)-2H,4H,5H,6H,7H-pyrazolo[4,3-c]pyridine-3-amido]cyclopropane-1-carboxylate], the pEC50 in the data set on HBV was 4.60 to 6.00. For the same molecule, the cytotoxic concentration (CC50) at 6 days in data set [1] was > 10 µM.
For `N[C@@H]1CCN(C(=O)c2[nH]nc3c2CN(C(=O)c2cc4ccccc4[nH]2)CC3)C1` [Example 259, (3R)-1-[5-(1H-indole-2-carbonyl)-2H,4H,5H,6H,7H-pyrazolo[4,3-c]pyridine-3-carbonyl]pyrrolidin-3-amine], in that order: 4.60 to 6.00 and > 10 µM.
For `CN(CCC(=O)O)C(=O)CCN(C)C(=O)c1[nH]nc2c1CN(C(=O)c1cc3ccccc3[nH]1)CC2` [Example 275, 3-(3-{1-[5-(1H-indole-2-carbonyl)-2H,4H,5H,6H,7H-pyrazolo[4,3-c]pyridin-3-yl]-N-methylformamido}-N-methylpropanamido)propanoic acid], the pEC50 in the data set on HBV was 4.60 to 6.00. In addition, in data set [1], the CC50 at 6 days is > 10 µM.
`CO/N=C(/c1n[nH]c2c1CN(C(=O)c1cc3ccccc3[nH]1)CC2)C1CC1` [Example 288, (E)-{cyclopropyl[5-(1H-indole-2-carbonyl)-1H,4H,5H,6H,7H-pyrazolo[4,3-c]pyridin-3-yl]methylidene}(methoxy)amine]: in the data set with HBV, the pEC50 is 4.60 to 6.00. The CC50 at 6 days in data set [1] was > 10 µM.
Turning to `CO/N=C(\c1n[nH]c2c1CN(C(=O)c1cc3ccccc3[nH]1)CC2)C1CC1` [Example 289, (Z)-{cyclopropyl[5-(1H-indole-2-carbonyl)-1H,4H,5H,6H,7H-pyrazolo[4,3-c]pyridin-3-yl]methylidene}(methoxy)amine], the pEC50 with HBV was 4.60 to 6.00. Also, the CC50 at 6 days in data set [1] is > 10 µM.
With `O=C(c1cc2ccccc2[nH]1)N1CCc2[nH]nc(C(=O)N(C3CCOCC3)C3CC3)c2C1` [Example 293, N-cyclopropyl-5-(1H-indole-2-carbonyl)-N-(oxan-4-yl)-1H,4H,5H,6H,7H-pyrazolo[4,3-c]pyridine-3-carboxamide], the pEC50 with HBV was > 4.00. For the same molecule, the CC50 at 6 days in data set [1] is > 10 µM.
For `CN(C(=O)c1[nH]nc2c1CN(C(=O)c1cc3cccc(F)c3[nH]1)CC2)C1CC1` [Example 319, N-cyclopropyl-5-(7-fluoro-1H-indole-2-carbonyl)-N-methyl-2H,4H,5H,6H,7H-pyrazolo[4,3-c]pyridine-3-carboxamide], in that order: > 6.00 and > 10 µM.
For `CN(C(=O)c1[nH]nc2c1CN(C(=O)c1cc3ccc(F)cc3[nH]1)CC2)C1CC1` [Example 320, N-cyclopropyl-5-(6-fluoro-1H-indole-2-carbonyl)-N-methyl-2H,4H,5H,6H,7H-pyrazolo[4,3-c]pyridine-3-carboxamide], in that order: > 6.00 and > 10 µM.
For `CN(C(=O)c1[nH]nc2c1CN(C(=O)c1cc3cc(F)ccc3[nH]1)CC2)C1CC1` [Example 321, N-cyclopropyl-5-(5-fluoro-1H-indole-2-carbonyl)-N-methyl-2H,4H,5H,6H,7H-pyrazolo[4,3-c]pyridine-3-carboxamide], in that order: > 6.00 and > 10 µM.
As to `O=C(c1cc2c(Cl)cc(F)cc2[nH]1)N1CCc2[nH]nc(C34CC(C3)C4)c2C1` [Example 335, 2-(3-{bicyclo[1.1.1]pentan-1-yl}-1H,4H,5H,6H,7H-pyrazolo[4,3-c]pyridine-5-carbonyl)-4-chloro-6-fluoro-1H-indole], in the data set with HBV, the pEC50 is > 6.00. Further, the CC50 at 6 days in data set [1] was > 10 µM.
For `O=C(c1cc2c(Cl)cccc2[nH]1)N1CCc2n[nH]c(C3CCC3)c2C1` [Example 387, 4-chloro-2-{3-cyclobutyl-2H,4H,5H,6H,7H-pyrazolo[4,3-c]pyridine-5-carbonyl}-1H-indole], in that order: > 6.00 and > 10 µM.
In the case of `O=C(c1cc2c(F)cc(F)cc2[nH]1)N1CCc2n[nH]c(C3CCC3)c2C1` [Example 388, 2-{3-cyclobutyl-2H,4H,5H,6H,7H-pyrazolo[4,3-c]pyridine-5-carbonyl}-4,6-difluoro-1H-indole], the pEC50 in the data set on HBV is > 6.00. Also, in data set [1], the CC50 at 6 days is > 10 µM.
For `O=C(c1cc2ccc(F)c(F)c2[nH]1)N1CCc2n[nH]c(C3CCC3)c2C1` [Example 389, 2-{3-cyclobutyl-2H,4H,5H,6H,7H-pyrazolo[4,3-c]pyridine-5-carbonyl}-6,7-difluoro-1H-indole], in that order: > 6.00 and > 10 µM.
`O=C(c1cc2cc(F)c(F)cc2[nH]1)N1CCc2n[nH]c(C3CCC3)c2C1` [Example 390, 2-{3-cyclobutyl-2H,4H,5H,6H,7H-pyrazolo[4,3-c]pyridine-5-carbonyl}-5,6-difluoro-1H-indole]: the pEC50 in the data set on HBV was > 6.00. Moreover, in data set [1], the CC50 at 6 days is > 10 µM.
For `O=C(c1cc2c(F)c(F)ccc2[nH]1)N1CCc2n[nH]c(C3CCC3)c2C1` [Example 391, 2-{3-cyclobutyl-2H,4H,5H,6H,7H-pyrazolo[4,3-c]pyridine-5-carbonyl}-4,5-difluoro-1H-indole], in that order: > 6.00 and > 10 µM.
As for `O=C(c1cc2cccc(F)c2[nH]1)N1CCc2n[nH]c(C3CCC3)c2C1` [Example 392, 2-{3-cyclobutyl-2H,4H,5H,6H,7H-pyrazolo[4,3-c]pyridine-5-carbonyl}-7-fluoro-1H-indole], in the data set with HBV, the pEC50 was > 6.00. For the same molecule, the CC50 at 6 days in data set [1] is > 10 µM.
For `O=C(c1cc2ccc(F)cc2[nH]1)N1CCc2n[nH]c(C3CCC3)c2C1` [Example 393, 2-{3-cyclobutyl-2H,4H,5H,6H,7H-pyrazolo[4,3-c]pyridine-5-carbonyl}-6-fluoro-1H-indole], in that order: > 6.00 and > 10 µM.
For `O=C(c1cc2cc(F)ccc2[nH]1)N1CCc2n[nH]c(C3CCC3)c2C1` [Example 394, 2-{3-cyclobutyl-2H,4H,5H,6H,7H-pyrazolo[4,3-c]pyridine-5-carbonyl}-5-fluoro-1H-indole], in that order: > 6.00 and > 10 µM.
As to `CCOCC1(N(C)C(=O)c2[nH]nc3c2CN(C(=O)c2cc4ccc(F)cc4[nH]2)CC3)CC1` [Example 395, N-[1-(ethoxymethyl)cyclopropyl]-5-(6-fluoro-1H-indole-2-carbonyl)-N-methyl-2H,4H,5H,6H,7H-pyrazolo[4,3-c]pyridine-3-carboxamide], the pEC50 in the data set on HBV was > 6.00. In data set [1], the CC50 at 6 days was > 10 µM.
For `O=C(c1cc2c(F)ccc(F)c2[nH]1)N1CCc2[nH]nc(C3CCC3)c2C1` [Example 396, 2-{3-cyclobutyl-1H,4H,5H,6H,7H-pyrazolo[4,3-c]pyridine-5-carbonyl}-4,7-difluoro-1H-indole], in the data set with HBV, the pEC50 is > 6.00. Moreover, the CC50 at 6 days in data set [1] is > 10 µM.
For `O=C(c1cc2c(F)cccc2[nH]1)N1CCc2n[nH]c(C3CCC3)c2C1` [Example 397, 2-{3-cyclobutyl-2H,4H,5H,6H,7H-pyrazolo[4,3-c]pyridine-5-carbonyl}-4-fluoro-1H-indole], in that order: > 6.00 and > 10 µM.
For `Cc1noc(C2(N(C)C(=O)c3[nH]nc4c3CN(C(=O)c3cc5ccccc5[nH]3)CC4)CC2)n1` [Example 398, 5-(1H-indole-2-carbonyl)-N-methyl-N-[1-(3-methyl-1,2,4-oxadiazol-5-yl)cyclopropyl]-2H,4H,5H,6H,7H-pyrazolo[4,3-c]pyridine-3-carboxamide], in that order: > 6.00 and > 10 µM.
For `CC(F)(F)c1cc(F)cc2[nH]c(C(=O)N3CCc4n[nH]c(C5CCC5)c4C3)cc12` [Example 399, 2-{3-cyclobutyl-2H,4H,5H,6H,7H-pyrazolo[4,3-c]pyridine-5-carbonyl}-4-(1,1-difluoroethyl)-6-fluoro-1H-indole], in that order: > 6.00 and > 10 µM.

As usually defined, the pEC50 is the negative decadic logarithm of the EC50, by convention in mol/L. One may read the CC50 as the concentration giving 50% cytotoxicity. A lower CC50 goes with harm at low concentration.
